Measured values: patent US12708607B2, “Thromboxane receptor antagonist formulations” (ATXA THERAPEUTICS LIMITED, priority 2020, dated 2026)
Where two headings read alike, the source gives them in different places.

Legend:
[1] = NTP42 levels in NHP plasma after repeat oral dosing; assay type: in vivo, cynomolgus monkey; conditions: for Cmax at 14 days: cynomolgus monkey, plasma, oral, 14 days repeat dosing of NTP42:KVA4 at 200 mg/kg/day
Su/Hx-induced PAH = conditions: Mulvaney et al. 2020; cited from earlier work
[2] = tested on: platelet aggregation induced by other platelet agonists; test: whole blood platelet aggregation ex vivo after oral dosing, other platelet agonists (e.g. 50 μM ADP); assay type: in vivo, cynomolgus monkey; conditions: 100 mg/kg BID oral, Day 14
Procedure: (§1) Whole blood platelet aggregation assays were performed ex vivo in blood samples taken from the NHPs (n=3) administered 100 mg/kg NTP42:KVA4, BID (200 mg/kg/day) for 14 days. In this type of platelet aggregation assay, a reduction in platelet numbers is indicative of platelet aggregation. Blood was collected prior to (pre-dose), and at 45 min- and 24 h-following the first daily dose, and platelet numbers determined in blood samples at baseline (untreated), and in blood samples incubated with drug vehicle, the thromboxane mimetic, U46619 or, as control, other platelet agonists (e.g., ADP, collagen, thrombin, ristocetin, epinephrine). Baseline platelet counts ranged from 120-190×10^3 platelets/μl.
(§2) Whole blood platelet aggregation assays were performed ex vivo in blood samples taken from the NHPs (n=3) administered 100 mg/kg NTP42:KVA4, BID (200 mg/kg/day) for 14 days. Blood was collected prior to (pre-dose), and at 45 min- and 24 h-following the first daily dose, and platelet numbers determined in blood samples at baseline (untreated), and in blood samples incubated with drug vehicle, the thromboxane mimetic, U46619 or, as control, 50 μM ADP. In this assay, a reduction in platelet numbers is indicative of platelet aggregation.

MCT-induced PAH = conditions: Mulvaney et al. 2020; cited from earlier work
[3] = tested on: TP (thromboxane A2 receptor); test: whole blood platelet aggregation ex vivo after oral dosing, U46619-induced; assay type: in vivo, cynomolgus monkey; conditions: 100 mg/kg BID oral, Day 14; 1 μM U46619
Procedure: as §1, §2

## CC(C)(C)NC(=O)NS(=O)(=O)c1cc(C#N)ccc1Oc1cccc(-c2ccc(OC(F)F)cc2)c1 [NTP42]
[1]; 24 h post-dosing, 200 mg/kg/day for 14 days
  NTP42 levels in NHP plasma 24 h post-dosing: still detectable
[1]; read-out: Cmax of NTP42 in NHP plasma
  Cmax at 14 days: 13200 ng/mL
[1]; read-out: Cmax of NTP42 in NHP plasma, molar equivalent
  Cmax at 14 days: 25 µM
[1]; pre-dose, Day 14
  NTP42 in NHP plasma prior to the first daily dose: present
Su/Hx-induced PAH
  efficacy of non-formulated drug in Su/Hx-induced model of PAH: has shown efficacy
[2]
  aggregation induced by other platelet agonists: did not affect
MCT-induced PAH
  efficacy of non-formulated drug in MCT-induced model of PAH: has shown efficacy
[3]
  TXA2 (U46619)-induced / TP-mediated platelet aggregation ex vivo: selectively inhibited
